Results taken from the NIST ThermoML archive (doi:10.1016/j.fluid.2010.11.020).

Conditions: Liquid, Vibrating tube method

CCCCO [butan-1-ol]
Conditions	mass density [kg/m3]
293.15 K, 100 kPa	809.5
293.15 K, 10000 kPa	816.4
293.15 K, 20000 kPa	822.9
293.15 K, 30000 kPa	828.9
293.15 K, 40000 kPa	834.5
293.15 K, 50000 kPa	839.8
293.15 K, 60000 kPa	844.7
293.15 K, 70000 kPa	849.6
293.15 K, 80000 kPa	854.2
293.15 K, 90000 kPa	858.5
293.15 K, 100000 kPa	862.9
293.15 K, 110000 kPa	866.7
293.15 K, 120000 kPa	870.8
293.15 K, 130000 kPa	874.4
293.15 K, 140000 kPa	878.1
303.15 K, 100 kPa	802
303.15 K, 10000 kPa	809.4
303.15 K, 20000 kPa	816
303.15 K, 30000 kPa	822.3
303.15 K, 40000 kPa	828
303.15 K, 50000 kPa	833.6
303.15 K, 60000 kPa	838.7
303.15 K, 70000 kPa	843.6
303.15 K, 80000 kPa	848.3
303.15 K, 90000 kPa	852.7
303.15 K, 100000 kPa	857
303.15 K, 110000 kPa	861.2
303.15 K, 120000 kPa	865
303.15 K, 130000 kPa	868.9
303.15 K, 140000 kPa	872.6
313.15 K, 100 kPa	794.1
313.15 K, 10000 kPa	801.6
313.15 K, 20000 kPa	809.1
313.15 K, 30000 kPa	815.4
313.15 K, 40000 kPa	821.4
313.15 K, 50000 kPa	827.2
313.15 K, 60000 kPa	832.6
313.15 K, 70000 kPa	837.8
313.15 K, 80000 kPa	842.6
313.15 K, 90000 kPa	847.3
313.15 K, 100000 kPa	851.6
313.15 K, 110000 kPa	856
313.15 K, 120000 kPa	860.1
313.15 K, 130000 kPa	864
313.15 K, 140000 kPa	867.9
323.15 K, 100 kPa	786.5
323.15 K, 10000 kPa	794.5
323.15 K, 20000 kPa	801.7
323.15 K, 30000 kPa	808.5
323.15 K, 40000 kPa	815
323.15 K, 50000 kPa	821
323.15 K, 60000 kPa	826.5
323.15 K, 70000 kPa	831.5
323.15 K, 80000 kPa	836.3
323.15 K, 90000 kPa	841.1
323.15 K, 100000 kPa	845.8
323.15 K, 110000 kPa	850.1
323.15 K, 120000 kPa	854.3
323.15 K, 130000 kPa	858.3
323.15 K, 140000 kPa	862.1
333.15 K, 100 kPa	778.3
333.15 K, 10000 kPa	786.8
333.15 K, 20000 kPa	794.6
333.15 K, 30000 kPa	801.7
333.15 K, 40000 kPa	808.4
333.15 K, 50000 kPa	814.6
333.15 K, 60000 kPa	820.3
333.15 K, 70000 kPa	825.6
333.15 K, 80000 kPa	830.8
333.15 K, 90000 kPa	836
333.15 K, 100000 kPa	840.5
333.15 K, 110000 kPa	844.9
333.15 K, 120000 kPa	849
333.15 K, 130000 kPa	853.2
333.15 K, 140000 kPa	857
343.15 K, 100 kPa	769.9
343.15 K, 10000 kPa	779
343.15 K, 20000 kPa	787.1
343.15 K, 30000 kPa	794.4
343.15 K, 40000 kPa	801.3
343.15 K, 50000 kPa	807.8
343.15 K, 60000 kPa	813.6
343.15 K, 70000 kPa	819.3
343.15 K, 80000 kPa	824.6
343.15 K, 90000 kPa	829.5
343.15 K, 100000 kPa	834.4
343.15 K, 110000 kPa	838.9
343.15 K, 120000 kPa	843.3
343.15 K, 130000 kPa	847.5
343.15 K, 140000 kPa	851.6
353.15 K, 100 kPa	760.9
353.15 K, 10000 kPa	770.6
353.15 K, 20000 kPa	779.2
353.15 K, 30000 kPa	787.1
353.15 K, 40000 kPa	794.3
353.15 K, 50000 kPa	800.9
353.15 K, 60000 kPa	807.7
353.15 K, 70000 kPa	813.2
353.15 K, 80000 kPa	818.9
353.15 K, 90000 kPa	823.9
353.15 K, 100000 kPa	828.8
353.15 K, 110000 kPa	833.5
353.15 K, 120000 kPa	838.1
353.15 K, 130000 kPa	842.1
353.15 K, 140000 kPa	846.5
363.15 K, 100 kPa	751.9
363.15 K, 10000 kPa	762.6
363.15 K, 20000 kPa	771.7
363.15 K, 30000 kPa	780.1
363.15 K, 40000 kPa	787.4
363.15 K, 50000 kPa	794.3
363.15 K, 60000 kPa	800.9
363.15 K, 70000 kPa	807
363.15 K, 80000 kPa	812.5
363.15 K, 90000 kPa	817.9
363.15 K, 100000 kPa	822.9
363.15 K, 110000 kPa	827.7
363.15 K, 120000 kPa	832.4
363.15 K, 130000 kPa	836.8
363.15 K, 140000 kPa	841
373.15 K, 100 kPa	742.4
373.15 K, 10000 kPa	753.4
373.15 K, 20000 kPa	763.3
373.15 K, 30000 kPa	772.2
373.15 K, 40000 kPa	780
373.15 K, 50000 kPa	787.2
373.15 K, 60000 kPa	793.8
373.15 K, 70000 kPa	800.2
373.15 K, 80000 kPa	805.8
373.15 K, 90000 kPa	811.5
373.15 K, 100000 kPa	817
373.15 K, 110000 kPa	821.9
373.15 K, 120000 kPa	826.3
373.15 K, 130000 kPa	831
373.15 K, 140000 kPa	835.3
383.15 K, 100 kPa	732.2
383.15 K, 10000 kPa	744.7
383.15 K, 20000 kPa	754.6
383.15 K, 30000 kPa	764.3
383.15 K, 40000 kPa	772.2
383.15 K, 50000 kPa	779.6
383.15 K, 60000 kPa	786.6
383.15 K, 70000 kPa	793.2
383.15 K, 80000 kPa	799.1
383.15 K, 90000 kPa	804.9
383.15 K, 100000 kPa	810.3
383.15 K, 110000 kPa	815.4
383.15 K, 120000 kPa	820.4
383.15 K, 130000 kPa	825
383.15 K, 140000 kPa	829.6
393.15 K, 10000 kPa	735.3
393.15 K, 20000 kPa	746.4
393.15 K, 30000 kPa	755.9
393.15 K, 40000 kPa	764.9
393.15 K, 50000 kPa	772.3
393.15 K, 60000 kPa	779.6
393.15 K, 70000 kPa	786.3
393.15 K, 80000 kPa	792.8
393.15 K, 90000 kPa	798.8
393.15 K, 100000 kPa	804.3
393.15 K, 110000 kPa	809.7
393.15 K, 120000 kPa	814.7
393.15 K, 130000 kPa	819.3
393.15 K, 140000 kPa	823.9
403.15 K, 10000 kPa	725.6
403.15 K, 20000 kPa	737.3
403.15 K, 30000 kPa	747.7
403.15 K, 40000 kPa	756.9
403.15 K, 50000 kPa	765.4
403.15 K, 60000 kPa	772.8
403.15 K, 70000 kPa	779.9
403.15 K, 80000 kPa	786.5
403.15 K, 90000 kPa	792.6
403.15 K, 100000 kPa	798.5
403.15 K, 110000 kPa	803.9
403.15 K, 120000 kPa	809.1
403.15 K, 130000 kPa	814.1
403.15 K, 140000 kPa	819.3
